This note sets out measurements from a melting point compilation (Tetko et al.; mined from patent text by program, amines drawn as free bases though some values may be those of a salt).

Turning to `COC(=O)Cc1ccc2nc(Nc3ccccc3C)oc2c1`, the melting point (commonly the temperature of the solid-liquid transition) is 128 to 129 °C.

The compound `CC(c1ccsc1)N(O)C(N)=O` (stereo not given) showed a melting point of 138 to 140 °C.

As for `CS(=O)(=O)NCCn1c(=O)c(-c2cccs2)nc2ccccc21`, the melting point was in the range of 236 to 237 °C.

`Clc1ncc(-c2nc(Cl)nc(Cl)c2Br)c(Cl)n1` registered a melting point of 136 to 138 °C.

Regarding `Oc1ccc(OCc2ccccc2)cc1F`, the melting point amounted to 67 °C.

`Cc1cc([N+](=O)[O-])c(C)c(Cl)c1Oc1ccc(Cl)c2ccccc12` yielded a melting point of 135 to 137 °C.

For the compound `COc1ccc2[nH]c(=O)cc(C)c2c1`, the melting point lay within 270 to 273 °C.

The compound `OC[C@H]1OC[C@@H](n2cnc3cc(Cl)c(Cl)cc32)[C@H](O)[C@@H]1O` came in with a melting point of 160 to 162 °C.

For `OC1CSC(Oc2ccc(-c3ccnc(Cl)c3)nc2)C(O)C1O` (stereo not given), the melting point was 179 °C.

The compound `CCCCCCCNC(=O)Nc1c(F)cc(F)cc1CCc1ccc(CC(C)(C)C)cc1` showed a melting point of 105 to 107 °C.

Turning to `O=c1[nH]c2ncc(-c3ccc(-c4nc[nH]n4)nc3)nc2n1CC1CCOCC1`, the melting point was 353 to 356 °C.

For `COCc1cnc2c(NC(=O)c3ccccc3C(F)(F)F)cccc2c1N1CCN(C)C1=O`, the melting point turned out to be 156 °C.

With `COC(=O)c1cc(C(=O)c2ccc(OC)c(C(=O)OC)c2)ccc1OC`, the melting point lay in the range of 142 to 144 °C.

Turning to `N#Cc1cc(N)ccc1N`, the melting point lay within 85 to 87 °C.

As for `COc1cc2oc(=O)c(C)c(C)c2cc1OCCN1CCN(c2cccc3[nH]ccc23)CC1`, the melting point was 201 to 202 °C.

`CCOC(=O)CSc1nc(Cl)cc(NCCc2ccc(Cl)cc2)n1` registered a melting point of 68 to 70 °C.

`CCCCNC(=O)n1cc[nH]c1=S`: the melting point fell in the range of 66 to 68 °C.

Compound `Cc1ccc(C(=O)S[C@@H](C)C(=O)N2CSC[C@H]2C(=O)O)cc1` came in with a melting point of 166 °C.

Compound `CC(C)n1cnc2c(NCc3ccc(O)cc3O)nc(NC[C@@H](C)O)nc21` displayed a melting point of 189 to 191 °C.

`CC(=O)N(N(CCCl)S(C)(=O)=O)S(C)(=O)=O` returned a melting point of 148 to 149 °C.

`CCN(C(=O)OC)c1c(C(=O)c2cnoc2C2CC2)ccc(Cl)c1Cl` yielded a melting point of 76 to 78 °C.

Compound `COC(=O)[C@H]1OC(O)[C@H](OC(=O)C(C)C)[C@@H](OC(=O)C(C)C)[C@@H]1OC(=O)C(C)C` (stereo not given in full) yielded a melting point of 89 °C.

`CCOC(=O)CCc1ccc(OCc2nc(-c3ccco3)oc2C)c(OC)c1` came in with a melting point of 88 to 89 °C.

`CCOC(=O)c1cnc2sc3c(n12)CCCCCC3`: the melting point lay within 79 to 81 °C.

`COC(=O)C(CCn1c(C(=O)c2ccccc2)cc(Br)c1Br)C(=O)OC` showed a melting point of 96 to 96.5 °C.

With `Cc1nc2cnccc2n1-c1ccc(COc2ccccc2C(=O)O)cc1`, the melting point lay in the range of 217 to 219 °C.

With `CCCCCCCCCCCCCCCCCCCCCCC(NC(C)=O)(C(=O)OCC)C(=O)OCC`, the melting point is 79 to 80 °C.

`CCCCC(NC(=O)c1ccccc1)C(=O)CN(C)C(=O)N1CCCC1C(=O)O` (stereo not given) came in with a melting point of 40 to 80 °C.

As for `CNc1nc(Cl)nc2c(Cl)ncnc12`, the melting point was in the range of 196 to 197 °C.

The compound `CCCCCCCCCC[C@@H]1C(=O)OC(C)=C[C@@H]1C(=O)OC` displayed a melting point of 40 to 42 °C.

Compound `CC(C)(C)N(NC(=O)c1ccccc1)C(=O)c1ccco1` gave a melting point of 155 to 175 °C.

With `COc1cccc(C(F)(F)F)c1S(=O)(=O)NC(=O)Nc1nc(C)cc(C)n1`, the melting point came to 190 °C.

`Cc1c(Cl)sc2[nH]c(=O)c(-c3ccccc3)c(O)c12` came in with a melting point of 105 to 107 °C.

With `CC1(C)Cc2ccc(C#N)cc2N(C(=O)Nc2ccccc2)C1`, the melting point is 170 to 171 °C.

For `Cc1ccc(C2C3=C(CC(C)(C)CC3=O)NC3=C2C(=O)CC(C)(C)C3)cc1[N+](=O)[O-]`, the melting point was greater than 300 °C.

The compound `O=C(O)c1ccc2c(c1)OCC(=O)N2Cc1ccccc1` returned a melting point of 230 °C.

For the compound `OCC12CCCN(CCC1)C2`, the melting point fell in the range of 64 to 65.5 °C.

`CSc1nn(-c2c(Cl)cc(C(F)(F)F)cc2Cl)nc1C` returned a melting point of 38 to 40 °C.

In the case of `COc1cc(Nc2nccc(-c3ccc(NCCC4CCCN4C)nc3)n2)cc(OC)c1OC` (stereo not given), the melting point fell in the range of 176 to 177 °C.

`O=C(c1ccccc1I)N1CCOCC1` came in with a melting point of 86 to 87 °C.

Regarding `Cc1c(F)c(N2CCC(C)(CN)C2)cc2c1c(=O)c(C(=O)O)cn2C1CC1` (stereo not given), the melting point was 250 to 252 °C.

`OCC(O)COC(c1ccccc1)(c1ccccc1)c1ccccc1` (stereo not given) displayed a melting point of 108 to 110 °C.

`Cc1cccc(-c2n[nH]cc2-c2ccc(F)c(-c3ccc(S(=O)(=O)C(F)(F)F)cc3)c2)n1` showed a melting point of 81 to 84 °C.

In turn, `COCCCNS(=O)(=O)NC(=O)OCc1ccc(OCCOC)cc1Oc1ncc(C(F)(F)F)cc1Cl` gave a melting point of 149 to 150 °C.

For the compound `CSc1ccc(C(=CN(C)C)C(C)=O)cc1`, the melting point fell in the range of 89 to 91 °C.

In turn, `CC1(C)Nc2cc(Br)ccc2-n2cccc21` showed a melting point of 89 to 91 °C.

On to `CCOC(=O)C(=O)N(CCBr)N=Cc1ccccc1`, for which the melting point was 56 to 57 °C.

Compound `COc1cc(Nc2nccc(-c3cccnc3)n2)cc(OC)c1OC` returned a melting point of 155 °C.

In turn, `Cc1cccnc1-c1ccc(Cl)cc1Cl` showed a melting point of 38 to 42.8 °C.

The compound `O=c1[nH]c(-c2ccc(Cl)c(Cl)c2)co1` gave a melting point of 262 to 263 °C.

`COc1ccccc1C(=O)Nc1ccc(CN2C(=O)[C@H]3CCC[C@H]3N(C(=O)CN3C(=O)c4ccccc4C3=O)c3ccccc32)cc1` (relative stereo) had a melting point of 279 to 281 °C.

The compound `CCOC(=O)COc1cccc(-c2cc(O)c(SCCc3ccccc3)c(=O)o2)c1` registered a melting point of 116 to 119 °C.

For `COc1cc(-c2ncnc(OC)c2Cl)c(F)cc1Cl`, the melting point lay in the range of 142 to 143 °C.

Compound `CN1Cc2c(Cl)ncn2-c2ccccc2C1=O` yielded a melting point of 193 to 194 °C.

As to `CCOC(=O)Cc1ccc(-c2nc(COc3ccc(CCl)cc3OC)c(C)o2)cc1`, the melting point lay in the range of 121 to 122 °C.

In the case of `COC(=O)C1=C(C)NC(C)=C(C(=O)OC)C1c1cc([N+](=O)[O-])ccc1OCCCCNCC(O)COc1ccc(OC)cc1` (stereo not given), the melting point was 154 to 155 °C.

`CCCCCc1ccc(-c2ccc(CCC3(C#N)CCCC(C)C3)cc2)cc1` (stereo not given): the melting point stood at 73 °C.

For `CCCCS(=O)(=O)Nc1ccc(OCc2ccc3ccccc3n2)cc1`, the melting point was determined as 113 °C.

As for `COc1cc2ccc3c4cc(OC)c(OC)cc4ncc3c2cc1OC`, the melting point was in the range of 122 to 124 °C.

Compound `CC(C)(C)c1cc(NC(=O)Nc2cccc(Cl)c2Cl)c(-c2ccccc2)s1` came in with a melting point of 171 to 173 °C.

Regarding `O=C1CCC(c2cc(F)c(Br)cc2F)C1` (stereo not given), the melting point was 63 to 65 °C.

The compound `Cc1ccn(C)c(=S)n1` displayed a melting point of 138 to 140 °C.

`CCOC(=O)c1ccc(-c2ccc3c(c2)OCO3)cc1` came in with a melting point of 92.5 to 93.5 °C.

In the case of `CS(=O)c1csc(C(=O)O)c1` (stereo not given), the melting point was in the range of 188 to 190 °C.

For `O=c1[nH]c2cc(Cl)ccc2c(O)c1Sc1ccc(O)cc1`, the melting point was greater than 300 °C.

In turn, `COc1cccc2c1C13CCN(C(=O)C4CC4)C(C2)C1(O)CCC(=O)C3` (stereo not given) had a melting point of 223 to 225 °C.

In turn, `O=C(OCCOC(c1ccccc1)(c1ccccc1)c1ccccc1)Oc1ccc([N+](=O)[O-])cc1` gave a melting point of 136 to 141 °C.

Regarding `CCCOc1ccc2c(c1)C(c1ccccc1OCC(=O)O)C(C(=O)O)C2c1ccc2c(c1)OCO2` (stereo not given), the melting point lay within 169 to 170 °C.

Compound `CC(C)(NC(=O)C(CS)NC(=O)c1ccccc1)c1ccccc1` (stereo not given) had a melting point of 169 to 173 °C.

`O=C1Cc2c(Cl)cccc2Sc2c(F)cccc21` came in with a melting point of 128 to 130 °C.

Compound `CCOC(=O)Cc1ccc(NC(=O)C(COc2cccc(Cl)c2)NS(=O)(=O)c2ccc(I)cc2)cc1` (racemic) showed a melting point of 169 to 170 °C.

Compound `Cc1cccc(-n2nc(C)c3c(Cl)c4ccccc4nc32)n1` yielded a melting point of 154 °C.

`CC(CCCl)C(=O)Nc1nnc(C(C)(C)C)s1` (stereo not given) gave a melting point of 124 to 126 °C.

`N#Cc1ccc(NC(=O)n2ccc3cc(Oc4cc(CC(N)=O)ncn4)ccc32)cc1C(F)(F)F` gave a melting point of 204 to 209 °C.

With `CN(c1cccc2cc(C3=NCC(C(C)(C)O)S3)[nH]c12)S(=O)(=O)c1cccs1` (stereo not given), the melting point fell in the range of 174 to 175 °C.

On to `CCCCC1=CC(O)(C(Br)Br)N(c2ccccc2)C1=O` (stereo not given), for which the melting point lay in the range of 96 to 98 °C.

In turn, `Cc1cccc2c(C3=CCN(C[C@H](O)COc4cccc5[nH]ccc45)CC3)c[nH]c12` showed a melting point of 155 to 158 °C.

In turn, `O=[N+]([O-])c1cncnc1O` showed a melting point of 300 °C.

Compound `NCC(=O)Nc1ccc(Br)cc1C(=NCCO)c1ccccc1F` gave a melting point of 167 to 168 °C.

Compound `CCn1c(N)c(C(=O)NC)c(=O)c2cnc(-c3ccc(NC(=O)NCc4cccnc4)cc3)nc21` gave a melting point of 250 °C.

`CC1(C)CCC(C)(C)c2cc(OCc3ccc(CC(N)=O)cc3)ccc21` had a melting point of 202 to 205 °C.

`CCCCc1ccc(-c2[nH]c(=O)n(C3CCCCC3)c2C)cc1` came in with a melting point of 236 °C.

For the compound `C[C@@H](n1cnc2cc(N3CCN(c4ccc(Cl)cc4)CC3)c(F)cc2c1=O)[C@](O)(Cn1cncn1)c1ccc(F)cc1F`, the melting point was in the range of 130 to 133 °C.

Compound `CCOc1ccc(N)cc1-c1nc2cccnc2c(=O)[nH]1` returned a melting point of 208 to 210 °C.

As to `Cc1cc(Nc2nc(-c3ccccc3)nc3ncccc23)[nH]n1`, the melting point worked out at 234 °C.

In turn, `CC(C)CCNC(=O)c1ccc2c(c1)N(C(C)CN(C)C)c1ccccc1S2` (racemic) displayed a melting point of 105 °C.

Consider `CC(C)Cn1nnc(-c2cccc(-c3ccnc4c(C(=O)c5cccs5)cnn34)c2)n1`, for which the melting point worked out at 141 °C.

Turning to `Cc1cc(F)ccc1-c1nc(NCC(F)(F)F)nc2c1ccc(=O)n2-c1c(F)cccc1F`, the melting point is 195 to 196 °C.

In turn, `CC(N1C(=O)C(=O)N(c2cccc(C#N)c2)C1=S)C(C)(C)C` (stereo not given) registered a melting point of 168 to 169 °C.

`CN(C(=O)c1ccc2cnccc2n1)C1CCCCC1`: the melting point lay within 62 to 63 °C.
